Laboratory results published in patent US10551384B2, “MTOR kinase mutations and methods of use thereof” (RUTGERS, THE STATE UNIVERSITY OF NEW JERSEY, priority 2016, dated 2020).

How the values were obtained:
[1] = biological target: T1, tor2-dg cells expressing TOR2-mTOR fusion (UniProt P32600+P42345); type: cell-based, S. cerevisiae; settings: 10-fold serial dilutions on plates containing drug
T1 construct: fused in frame with mTOR kinase domain (2140-2549 aa); yeast TOR2 N-terminus (1-2080 aa); expressed in transfected cells; host or cells: S. cerevisiae W303 tor2-dg, centromeric plasmid derived from pML40-TOR2
Description: The TOR2-mTOR hybrid plasmid was constructed by replacing the C-terminal region of TOR2 of pML40-TOR2 (Alarcon, et al. (1996). Genes & development 10, 279-288) (encoding for 2080-2474 aa) in frame with a DNA fragment corresponding to C-terminal domain of mTOR (encoding for 2140-2549 aa). To construct mutant TOR2-mTOR plasmids, mTOR C-terminal region was amplified by PCR and co-transformed into yeast with XmaI-digested pML40-TOR2 plasmid that excised the TOR2 C-terminal region. The resultant TOR2-mTOR fusion plasmids are constructed in reading frame by gap-repair in yeast.

[2] = tested on: SW480 colorectal cancer cells carrying L2185A mutant mTOR alleles; test: SRB growth assay of SW480 cells carrying L2185A mutant mTOR; type: cell-based, human; settings: various concentrations, 2 day
Description: (FIG. 5A) SW480 cells carrying homozygous WT mTOR or L2185A mutant alleles were treated with various concentrations of AZD8055, INK-128, OSI-027 and PP242 for 2 day. Growth of SW480 cells was measured by SRB assay. Data represent means±SD in three independent experiments. (FIG. 5B) SW480 cells carrying homozygous WT and L2185A mutant mTOR allele were treated with a single dose of AZD8055 (100 nM), INK-128 (100 nM), OSI-027 (6,000 nM), and PP242 (2,000 nM) for different times. Cell growth was measured by SRB assay. The drug carrier DMSO was used as a control. Data represent means±SD in three independent experiments. (FIG. 5C) SW480 cells carrying homozygous WT and L2185A mutant mTOR were treated with various concentrations of INK-128, OSI-027, AZD8055 and PP242 for 1 hr. The effect on the level of P-S6K, S6K, P-4E-BP1, 4EB-P1, P-AKT and AKT was analyzed by immunoblot. […] The growth of SW480 cells was measured by SRB assay. Data represent means±SD in three independent experiments.
Cancer cell lines were maintained in DMEM or RPMI 1640, supplemented with 10% fetal bovine serum (Invitrogen) and 1% penicillin/streptomycin (Invitrogen). CRISPR/cas9 technology was used to engineer mutant mTOR allele in SW480 colorectal and H460 lung cancer cells. Briefly, The target sequence for mTOR, […] (SEQ ID NO: 3 was designed through the online tool at crispr.mit.edu, and cloned into pSPCas9(BB)-2A-GFP vector (PX458 in Addgene). Genomic mTOR mutation was engineered using a protocol as described (Ran, et al. (2013). Nature protocols 8, 2281-2308) and was confirmed by targeted sequencing.
Antibodies against tubulin, S6K, phospho-S6K (Thr389), 4E-BP1, phospho-4E-BP1 (Thr37/46), Akt, phospho-Akt (Thr308), and phospho-Akt (Ser473) were purchased from Cell Signaling Technology. […] For drug sensitivity test, cancer cells were seeded in 96-well plates at a density of 2,000 cells per well. 24 hours later, different concentrations of mTOR inhibitors were added in quadruplicate. Cell growth was measured by the sulforhodamine B (SRB) assay as previously described (Vichai, V., and Kirtikara, K. (2006). Nature protocols 1, 1112-1116).

[3] = tested on: H460 lung cancer cells carrying L2185A mutant mTOR alleles; test: SRB growth assay of H460 cells carrying L2185A mutant mTOR; type: cell-based, human; settings: various concentrations, 2 days
Description: (FIG. 10A) Flag-mTOR(L2185A), when transiently expressed in HEK293T cells, confers drug resistance to mTOR kinase inhibitors. HEK293T cells transiently expressing WT and L2185A mutant Flag-mTOR were treated with various concentrations of INK-128, OSI-027 for 1 hr. The effect on the level of P-S6K, S6K, P-4E-BP1, 4EB-P1, P-AKT and AKT was analyzed by immunoblot. (FIG. 10B) Sequencing verification of genome-engineered SW480 and H460 cells carrying homozygous and heterozygous L2185A mutations in mTOR locus. (FIG. 10C) Independent clones of engineered SW480 cells confer similar drug resistance. Cells were treated with various concentrations of AZD8055 and INK-128 for 2 days. Cell growth was measured by SRB assay. Clones #1, 3 carry heterozygous L2185A mutation. Clones #2, 4 carry homozygous L2185A mutation. […] Cell growth was measured by SRB assay. […] Cell growth was measured by SRB assay. […] The effect on level of P-S6K, P-4E-BP1 and P-AKT was analyzed by immunoblot. […] The growth of H460 cells was measured by SRB assay. […]
Antibodies against tubulin, S6K, phospho-S6K (Thr389), 4E-BP1, phospho-4E-BP1 (Thr37/46), Akt, phospho-Akt (Thr308), and phospho-Akt (Ser473) were purchased from Cell Signaling Technology. […] Cell growth was measured by the sulforhodamine B (SRB) assay as previously described (Vichai, V., and Kirtikara, K. (2006). Nature protocols 1, 1112-1116).

[4] = biological target: T2, tor2-dg cells expressing TOR2 (Saccharomyces cerevisiae, UniProt P32600); test: Yeast serial-dilution drug sensitivity assay, tor2-dg cells expressing TOR2; type: cell-based, S. cerevisiae; settings: 10-fold serial dilutions on plates containing drug
T2 construct: expressed in transfected cells; host or cells: S. cerevisiae W303 tor2-dg, plasmid pML40-TOR2
T2 sequence (P32600 whole entry): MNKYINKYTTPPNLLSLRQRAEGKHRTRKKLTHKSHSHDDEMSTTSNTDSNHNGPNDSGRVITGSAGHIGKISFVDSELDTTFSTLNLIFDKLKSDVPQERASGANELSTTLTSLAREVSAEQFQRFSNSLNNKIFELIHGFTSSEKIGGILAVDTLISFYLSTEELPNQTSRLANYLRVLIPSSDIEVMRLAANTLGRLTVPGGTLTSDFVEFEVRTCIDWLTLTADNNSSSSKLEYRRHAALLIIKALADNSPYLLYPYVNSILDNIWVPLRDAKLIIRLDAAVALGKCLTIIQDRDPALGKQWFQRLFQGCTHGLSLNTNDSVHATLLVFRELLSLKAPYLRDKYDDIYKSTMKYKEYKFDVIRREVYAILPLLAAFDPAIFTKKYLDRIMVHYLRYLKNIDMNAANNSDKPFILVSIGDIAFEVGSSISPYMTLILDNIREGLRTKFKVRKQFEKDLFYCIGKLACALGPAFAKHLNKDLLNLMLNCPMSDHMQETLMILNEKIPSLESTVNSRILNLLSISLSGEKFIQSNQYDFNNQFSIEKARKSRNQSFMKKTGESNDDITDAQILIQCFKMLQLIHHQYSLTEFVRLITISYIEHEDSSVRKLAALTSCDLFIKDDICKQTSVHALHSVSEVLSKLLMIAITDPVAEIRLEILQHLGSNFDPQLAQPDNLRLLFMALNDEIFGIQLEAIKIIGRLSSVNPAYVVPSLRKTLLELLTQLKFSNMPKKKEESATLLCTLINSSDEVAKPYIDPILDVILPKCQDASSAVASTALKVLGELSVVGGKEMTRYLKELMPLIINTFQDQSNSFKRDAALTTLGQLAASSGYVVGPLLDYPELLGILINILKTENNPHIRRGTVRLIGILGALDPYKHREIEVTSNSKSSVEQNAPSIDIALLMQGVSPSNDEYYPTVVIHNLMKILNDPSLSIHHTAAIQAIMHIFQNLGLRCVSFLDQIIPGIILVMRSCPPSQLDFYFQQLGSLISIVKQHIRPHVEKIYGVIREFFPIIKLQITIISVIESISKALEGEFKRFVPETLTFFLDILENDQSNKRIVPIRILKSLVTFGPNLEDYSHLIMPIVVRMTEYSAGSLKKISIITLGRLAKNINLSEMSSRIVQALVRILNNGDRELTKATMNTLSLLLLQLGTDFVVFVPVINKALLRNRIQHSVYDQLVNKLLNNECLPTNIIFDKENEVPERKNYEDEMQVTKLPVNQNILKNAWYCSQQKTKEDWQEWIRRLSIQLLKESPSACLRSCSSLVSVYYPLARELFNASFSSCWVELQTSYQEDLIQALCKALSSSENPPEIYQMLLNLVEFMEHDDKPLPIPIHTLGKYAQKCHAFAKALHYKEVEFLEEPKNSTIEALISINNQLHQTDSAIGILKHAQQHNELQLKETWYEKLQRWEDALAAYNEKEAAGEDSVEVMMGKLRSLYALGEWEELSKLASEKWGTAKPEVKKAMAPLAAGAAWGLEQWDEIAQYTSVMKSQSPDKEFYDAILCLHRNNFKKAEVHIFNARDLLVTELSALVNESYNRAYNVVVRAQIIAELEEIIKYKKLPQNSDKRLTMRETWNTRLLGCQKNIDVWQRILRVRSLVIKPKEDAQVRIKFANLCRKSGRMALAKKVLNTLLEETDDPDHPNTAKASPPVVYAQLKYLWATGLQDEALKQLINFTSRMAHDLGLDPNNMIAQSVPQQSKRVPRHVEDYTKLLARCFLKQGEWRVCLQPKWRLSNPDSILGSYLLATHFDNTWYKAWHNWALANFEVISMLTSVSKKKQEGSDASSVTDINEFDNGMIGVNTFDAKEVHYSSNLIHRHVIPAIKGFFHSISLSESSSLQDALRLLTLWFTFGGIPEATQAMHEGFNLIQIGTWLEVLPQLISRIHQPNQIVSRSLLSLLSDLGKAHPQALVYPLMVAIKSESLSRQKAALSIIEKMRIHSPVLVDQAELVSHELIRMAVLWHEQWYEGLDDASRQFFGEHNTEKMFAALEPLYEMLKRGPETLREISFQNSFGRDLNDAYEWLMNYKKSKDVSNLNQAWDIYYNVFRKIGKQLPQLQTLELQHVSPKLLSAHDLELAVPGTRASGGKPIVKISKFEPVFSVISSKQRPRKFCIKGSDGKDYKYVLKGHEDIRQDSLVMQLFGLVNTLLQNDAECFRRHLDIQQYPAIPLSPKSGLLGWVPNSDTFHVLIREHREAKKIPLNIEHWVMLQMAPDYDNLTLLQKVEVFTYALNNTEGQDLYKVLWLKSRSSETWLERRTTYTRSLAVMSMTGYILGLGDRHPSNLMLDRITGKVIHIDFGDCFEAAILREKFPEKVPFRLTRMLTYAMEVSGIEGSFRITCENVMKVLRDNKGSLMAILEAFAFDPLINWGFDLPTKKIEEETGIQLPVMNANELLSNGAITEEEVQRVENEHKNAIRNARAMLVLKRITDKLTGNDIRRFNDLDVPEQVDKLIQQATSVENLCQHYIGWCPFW
Text: FIGS. 1A-E. Developing a yeast system to assay for mTOR kinase inhibition. (FIG. 1A) Wild type (WT) yeast cells were spread onto YPD plates and tested for sensitivity to structurally diverse mTOR kinase inhibitors by disc halo assay. Rapamycin was used as a positive control. (FIG. 1B) The N-terminus of TOR2 (1-2080 aa) was fused in frame with mTOR kinase domain (2140-2549 aa). The TOR2-mTOR fusion is expressed under the control of TOR2 promoter in a centromeric plasmid. (FIG. 1C) Yeast strain expressing WT TOR2 or TOR2-mTOR fusion was analyzed for expression by immunoblot with an antibody specific for mTOR kinase domain. PGK1 was used as a loading control and extracts from MCF7 breast cells were used as a positive control for mTOR. (FIG. 1D) TOR2-mTOR fusion was expressed in tort-dg and tested for its ability to complement TOR2 function by growth at permissive and restrictive temperatures.
To enhance yeast cell permeability, log phase W303 tort-dg cells were spread evenly on SD-Leu agarose plates. After drying, small sterile filter discs were placed on the surface and 5 μl of indicated mTOR inhibitors or DMSO were applied to each disc with or without adding 5 μl of amphotericin B (10 μM), miconazole (50 μM) or caspofungin (50 μM). Plates were incubated at 37° C. for 3 day. Drug resistance profiles of TOR2-mTOR mutant cells were determined by the spotting assay. […]

TOR2-mTOR L2185C mutant = test: Yeast spotting assay for drug resistance, TOR2-mTOR L2185C; type: cell-based, S. cerevisiae; settings: 37° C., amphotericin B present (except OSI-027)
Text: (§1) FIGS. 4A-C. […] (FIG. 4A) Scheme of a yeast-based screen for drug-resistant mutations in mTOR kinase domain. mTOR kinase domain is amplified by error-prone PCR to generate randomized mutations, which is then recombined in frame into the TOR2-mTOR plasmid by gap-repair in tort-dg cells, and is selected on SC-leucine minus plates. Replica plating is then made onto SC-leucine plates containing DMSO or mTOR kinase inhibitor for selection of drug resistant clones. (FIG. 4B) tor2-dg cells expressing WT or mutant TOR2-mTOR were serially diluted by 10-fold and assayed for sensitivity to different mTOR kinase inhibitors in the presence of amphotericin B. Vector and TOR2 were used as controls. Drug resistant assay was performed at 37° C. in the presence of amphotericin B (except OSI-027). (FIG. 4C) Systematic mutational analysis of L2185 on drug resistance. tort-dg cells expressing WT or mutant TOR2-mTOR carrying all possible mutations at L2185 were serially diluted by 10-fold and tested for sensitivity to different mTOR kinase inhibitors at 37° C.
(§2) To enhance yeast cell permeability, log phase W303 tort-dg cells were spread evenly on SD-Leu agarose plates. After drying, small sterile filter discs were placed on the surface and 5 μl of indicated mTOR inhibitors or DMSO were applied to each disc with or without adding 5 μl of amphotericin B (10 μM), miconazole (50 μM) or caspofungin (50 μM). Plates were incubated at 37° C. for 3 day. Drug resistance profiles of TOR2-mTOR mutant cells were determined by the spotting assay. For this assay, 10-fold serial dilutions of cells were spotted on SD-leu plates in the presence of indicated mTOR inhibitors with or without amphotericin B (200 nM) and incubated at 37° C. for 3 day.

TOR2-mTOR L2185A mutant = test: Yeast spotting assay for drug resistance, TOR2-mTOR L2185A; type: cell-based, S. cerevisiae; settings: 37° C., amphotericin B present (except OSI-027)
Text: as §1, §2

[5] = tested on: Wild type (WT) yeast cells; test: Disc halo assay of wild type yeast sensitivity to mTOR kinase inhibitors; type: cell-based, S. cerevisiae; settings: WT yeast on YPD plates; 5 μl on filter disc, BEZ235 5 μM, other mTOR inhibitors 10 μM; 30° C., 3 day
Description: For the halo assay, log phase W303 wild type or tor2-dg cells were spread evenly on YPD agarose plates. […] Plates were incubated at 30° C. (wild type) or 37° C. (tor2-dg) for 3 day.

Row | Structure (SMILES) | drug sensitivity of tor2-dg cells expressing TOR2-mTOR [1] | drug resistance/sensitivity of cell growth, SW480 L2185A vs WT [2] | drug resistance/sensitivity of cell growth, H460 L2185A vs WT [3] | drug sensitivity (growth inhibition) of tor2-dg cells expressing TOR2 [4] | drug resistance/sensitivity of TOR2-mTOR L2185C mutant yeast (TOR2-mTOR L2185C mutant) | drug resistance/sensitivity of TOR2-mTOR L2185A mutant yeast (TOR2-mTOR L2185A mutant) | inhibition of yeast growth (disc halo assay) [5]
1 | Cn1c(=O)n(-c2ccc(C(C)(C)C#N)cc2)c2c3cc(-c4cnc5ccccc5c4)ccc3ncc21 [BEZ235] | highly sensitive | remains sensitive | remains sensitive | poorly inhibited | – | – | –
2 | Nc1ccc(-c2ccc3ncc4ccc(=O)n(-c5cccc(C(F)(F)F)c5)c4c3c2)cn1 [Torin2] | – | remains sensitive | remains sensitive | – | remain sensitive | remain sensitive | inhibit yeast growth
